The text below walks through data of patent US6645976B1 (Eli Lilly and Company, priority 1994, dated 2003).

Each structure is given as a SMILES string. Counter-ions that a name gives are not always drawn.

Data set [1] deals with T1, recombinant human secreted phospholipase A2 (Homo sapiens, UniProt P14555).
T1 sequence (P14555 21-144): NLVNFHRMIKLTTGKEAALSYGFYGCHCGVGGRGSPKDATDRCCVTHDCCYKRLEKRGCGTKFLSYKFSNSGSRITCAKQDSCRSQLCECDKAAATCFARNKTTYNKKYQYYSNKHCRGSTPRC
The data set can be described thus: sPLA2 Chromogenic Assay (Assay 1). The data set is classed as biochemical. The conditions noted are these: diheptanoyl thio-PC substrate, pH 7.5, 40° C. for 30 minutes, absorbance at 405 nanometers.
Procedure: The following chromogenic assay procedure was used to identify and evaluate inhibitors of recombinant human secreted phospholipase A2. The assay described herein has been adapted for high volume screening using 96 well microtiter plates.
A measured volume of racemic dipheptanoyl thio PC supplied in chloroform at a concentration of 100 mg/ml is taken to dryness and redissolved in 10 millimolar TRITON X-100™ nonionic detergent aqueous solution. Reaction Buffer is added to the solution, then DTNB to give the Reaction Mixture.
The reaction mixture thus obtained contains 1 mM diheptanoyl thio-PC substrate, 0.29 mm Triton X-100™ detergent, and 0.12 mm DTMB in a buffered aqueous solution at pH 7.5.
1. Add 0.2 ml reaction mixture to all wells;
2. Add 10 ul test compound (or solvent blank) to appropriate wells, mix 20 seconds;
3. Add 50 nanograms of sPLA2 (10 microliters) to appropriate wells;
4. Incubate plate at 40° C. for 30 minutes;
All compounds were tested in triplicate. […] Each sample was titrated in triplicate and result values were averaged for plotting and calculation of IC50 values.

Regarding `CCc1c(C(=O)C(N)=O)c2cc(OCCCCCC(=O)O)ccn2c1Cc1ccccc1-c1ccccc1`, the melting point was 84 to 94 °C (dec.).
Same read-out and setting: the result for `CCCCCC1CCC(Cc2c(CC)c(C(=O)C(N)=O)c3c(OCC(=O)O)cccn23)CC1` (stereo not shown) (as salt: Na) [Compound 52o, 2-(8-(Carboxymethyloxy)-2-ethyl-3-(4-n-pentylcyclohexylmethyl)indolizin-1-yl)glyoxylamide] reads 224 to 225 °C; that for `CCc1c(CC(N)=O)c2c(OCC(=O)OC)cccn2c1Cc1ccccc1` [Compound 21v, Methyl (3-Benzyl-1-carbamoylmethyl-2-ethylindolizin-8-yloxy)acetate], 159 to 163 °C.
Consider `CCc1c(CC(N)=O)c2c(OCC(=O)OCc3ccccc3)cccn2c1Cc1cccc(Cl)c1` [Compound 21y, 2-(8-(Benzyloxycarbonylmethyloxy)-3-(m-chlorobenzyl)-2-ethylindolizin-1-yl)acetamide], for which the melting point fell in the range of 157 to 158 °C. Also, in data set [1], the concentration for half-maximal inhibition (IC50) was found to be 350 nM.
As for `CCc1c(CC(N)=O)c2c(OCC(=O)O)cccn2c1-c1cccc2ccccc12` [Compound 22w, 2-(8-(Carboxymethyloxy)-2-ethyl-3-(1-naphthyl)indolizin-1-yl)acetamide], the melting point was in the range of 129 to 133 °C.
Molecule `Cc1c(C(=O)C(N)=O)c2ccccn2c1Cc1ccccc1` [Compound 34, (3-Benzyl-2-methylindolizin-1-yl)glyoxylamide] returned a melting point of 198 to 199 °C. Moreover, the IC50 in data set [1] turned out to be 890 nM.
The like results for `CCc1c(C(=O)C(N)=O)c2c(OCc3ccccc3)cccn2c1Cc1ccccc1` [Compound 35a, (3-Benzyl-8-benzyloxy-2-ethylindolizin-1-yl)glyoxylamide] were, in that order, 188 to 189 °C and 400 nM.
On the same counts, the results for `Cc1c(C(=O)C(N)=O)c2c(OCc3ccccc3)cccn2c1Cc1ccccc1` [Compound 35g, (3-Benzyl-8-benzyloxy-2-methylindolizin-1-yl)glyoxylamide] are 212 to 214 °C and 47 nM.
Consider `CCOC(=O)COc1cccn2c(Cc3ccccc3)c(CC)c(C(=O)C(N)=O)c12` [Compound 37a, (3-Benzyl-8-(carbethoxymethyloxy)-2-ethylindolizin-1-yl)glyoxylamide], for which the melting point fell in the range of 191 to 192 °C. Besides, the 50% inhibitory concentration (IC50) in data set [1] is 44 nM.
On the same counts, the results for `CCOC(=O)COc1cccn2c(Cc3ccccc3-c3ccccc3)c(CC)c(C(=O)C(N)=O)c12` [Compound 37d, (8-(Carbethoxymethyloxy)-2-ethyl-3-(o-phenylbenzyl)indolizin-1-yl)glyoxylamide] are 127 to 129 °C and 13 nM.
The like results for `CCOC(=O)COc1cccn2c(Cc3ccccc3)c(C)c(C(=O)C(N)=O)c12` [Compound 37g, (3-Benzyl-8-(carbethoxymethyloxy)-2-methylindolizin-1-yl)glyoxylamide] were, in that order, 193 to 195 °C and 23 nM.
`CCOC(=O)COc1cccn2c(Cc3cccc(Cl)c3)c(CC)c(C(=O)C(N)=O)c12` [Compound 37h, (8-(Carbethoxymethyloxy)-3-(m-chlorobenzyl)-2-ethylindolizin-1-yl)glyoxylamide] registered a melting point of 172 to 175 °C.
In turn, `CCc1c(C(=O)C(N)=O)c2c(OCC(=O)OC(C)(C)C)cccn2c1Cc1ccccc1` [Compound 38a, (3-Benzyl-8-(t-butoxycarbonylmethyloxy)-2-ethylindolizin-1-yl)glyoxylamide] came in with a melting point of 161 to 162 °C. Moreover, in data set [1], the half-inhibitory concentration (IC50) turned out to be 52 nM.
In the case of `CCc1c(C(=O)C(N)=O)c2c(OCC(=O)OC)cccn2c1Cc1cccc(C(F)(F)F)c1` [Compound 39i, (8-(Carbmethoxymethyloxy)-2-ethyl-3-(m-trifluoromethylbenzyl)indolizin-1-yl)glyoxylamide], the melting point lay in the range of 136 to 137 °C.
Still for that read-out and setting: the result for `COC(=O)COc1cccn2c(Cc3ccccc3-c3ccccc3)c(C3CC3)c(C(=O)C(N)=O)c12` [Compound 39k, (8-(Carbmethoxymethyloxy)-2-cyclopropyl-3-(o-phenylbenzyl)indolizin-1-yl)glyoxylamide] reads 178 to 179 °C.
The molecule `CCc1c(C(=O)C(=O)N(C)C)c2c(OCC(=O)O)cccn2c1Cc1ccccc1-c1ccccc1` [Compound 40f, (8-(Carboxymethyloxy)-2-ethyl-3-(o-phenylbenzyl)indolizin-1-yl)glyoxyl-N,N-dimethylamide] had a melting point of 208 to 209 °C. The IC50 in data set [1] was more than 50000 nM.
The like results for `CCc1c(C(=O)C(N)=O)c2c(OCc3ccccc3)cccn2c1Cc1cccs1` [Compound 49k, 2-(8-Benzyloxy-2-ethyl-3-(thiophen-2-ylmethyl)indolizin-1-yl)glyoxylamide] were, in that order, 191 to 192 °C and 790 nM.
`CCCCc1ccc(Cc2c(CC)c(C(=O)C(N)=O)c3c(OC)cccn23)cc1` [Compound 49s, 2-(3-(p-n-Butylbenzyl)-2-ethyl-8-methoxyindolizin-1-yl)glyoxylamide] yielded a melting point of 195 to 196 °C. In data set [1], the IC50 was found to be 360 nM.
In turn, `CCc1c(C(=O)C(N)=O)c2c(OCC(=O)OC)cccn2c1CC1CCCCC1` [Compound 51b, 2-(8-(Carbomethoxymethyloxy)-3-cyclohexylmethyl-2-ethylindolizin-1-yl)glyoxylamide] yielded a melting point of 149 to 150 °C. Also, the IC50 in data set [1] came out at 310 nM.
The like results for `CCc1c(C(=O)C(N)=O)c2c(OCC(=O)OC)cccn2c1CC1CCCC1` [Compound 51c, 2-(8-(Carbomethoxymethyloxy)-3-cyclopentylmethyl-2-ethylindolizin-1-yl)glyoxylamide] were, in that order, 158 to 159 °C and 430 nM.
`CCc1c(C(=O)C(N)=O)c2c(OCC(=O)OC)cccn2c1CC1CCCCCC1` [Compound 51d, 2-(8-(Carbomethoxymethyloxy)-3-cycloheptylmethyl-2-ethylindolizin-1-yl)glyoxylamide]: the melting point was in the range of 147 to 148 °C. Further, the half-inhibitory concentration (IC50) in data set [1] was 550 nM.
The like results for `CCCC(CCC)Cc1c(CC)c(C(=O)C(N)=O)c2c(OCC(=O)OC)cccn12` [Compound 51f, 2-(8-(Carbomethoxymethyloxy)-2-ethyl-3-(2-propylpentyl)indolizin-1-yl)glyoxylamide] were, in that order, 114 to 115 °C and 590 nM.
The molecule `CCc1c(C(=O)C(N)=O)c2c(OCC(=O)OC)cccn2c1Cc1ccc2ccccc2c1` [Compound 51g, 2-(8-(Carbomethoxymethyloxy)-2-ethyl-3-(naphth-2-ylmethyl)indolizin-1-yl)glyoxylamide] showed a melting point of 195 to 196 °C. Further, the concentration for half-maximal inhibition (IC50) in data set [1] was found to be 170 nM.
On the same counts, the results for `CCc1c(C(=O)C(N)=O)c2c(OCC(=O)OC)cccn2c1Cc1ccccc1Cc1ccccc1` [Compound 51j] are 190 to 191 °C and 20 nM.
On to `CCc1c(C(=O)C(N)=O)c2c(OCC(=O)OC)cccn2c1-c1cccs1` [Compound 51k], for which the melting point turned out to be 182 °C.
Same read-out and setting: the result for `CCc1c(C(=O)C(N)=O)c2c(OCC(=O)OC)cccn2c1Cc1ccccc1[N+](=O)[O-]` [Compound 51n, 2-(2-Ethyl-8-(carbomethoxymethyloxy)-3-(o-nitrobenzyl)indolizine-1-yl)glyoxylamide] reads 156 to 157 °C; that for `COC(=O)COc1cccn2c(CC34CC5CC(CC(C5)C3)C4)c(C)c(C(=O)C(N)=O)c12` [Compound 51p, 2-(3-(Adamant-1-ylmethyl)-8-(carbomethoxymethyloxy)-2-methylindolizin-1-yl)glyoxylamide], 191 to 192 °C.
For the molecule `COC(=O)COc1cccn2c(Cc3ccccc3)c(C3CC3)c(C(=O)C(N)=O)c12` [Compound 51r, 2-(3-Benzyl-8-carbomethoxymethyloxy-2-cyclopropylindolizin-1-yl)-glyoxylamide], the melting point is 186 to 188 °C.
For `NC(=O)C(=O)c1c(C2CC2)c(Cc2ccccc2-c2ccccc2)n2ccc(OCCCC(=O)O)cc12` [Compound 67b, 2-(7-(3-Carboxypropyloxy)-2-cyclopropyl-3-(o-phenylbenzyl)indolizin-1-yl)glyoxylamide], the melting point is 112 to 121 °C (dec.).
The same measure, in the same setting: the result for `CCOC(=O)COc1ccn2c(Cc3ccccc3-c3ccccc3)c(CC)c(C(=O)C(N)=O)c2c1` [Compound 68b, 2-(7-(Carboethoxymethyloxy)-2-ethyl-3-(o-phenylbenzyl)indolizin-1-yl)glyoxylamide] reads 119 to 121 °C; that for `CCc1c(CC(N)=O)c2cc(OCCCC(=O)O)ccn2c1Cc1ccccc1-c1ccccc1` [Compound 71b, 2-(7-(3-Carboxypropyloxy)-2-ethyl-3-(o-phenylbenzyl)indolizin-1-yl)acetamide], 105 to 120 °C (dec.).
With `CSc1c(C(=O)C(N)=O)c2c(OCC(=O)O)cccn2c1Cc1ccccc1-c1ccccc1` [Compound 83, 2-(8-(Carboxymethyloxy)-2-methylthio-3-(o-phenylbenzyl)indolizin-lyl)-glyoxylamide], in data set [1], the half-inhibitory concentration (IC50) is 16 nM.
For the molecule `COC(=O)CNc1cccn2c(Cc3ccccc3)c(C)c(C(=O)C(N)=O)c12` [Compound 89a, 2-(3-Benzyl-8-methoxycarbonylmethylamino-2-methyl-indolizin-1-yl)-glyoxylamide], the melting point was 293 °C (dec.).
With `COC(=O)CNc1cccn2c(CC3CCCCC3)c(C)c(C(=O)C(N)=O)c12` [Compound 89b, 2-(8-methoxycarbonylmethylamino-3-cyclohexylmethyl-2-methyl-indolizin-1-yl)-glyoxylamide], the melting point was 173 to 177 °C.
Still for that read-out and setting: the result for `Cc1c(C(=O)C(N)=O)c2c(NCC(=O)O)cccn2c1CC1CCCCC1` [Compound 90b, 2-(8-Carboxymethylamino-3-cyclohexylmethyl-2-methyl-indolizin-1-yl)-glyoxylamide] reads more than 300 °C.
